Experiment [1] concerns K. pneumoniae K66-45 (NDM-1). The experiment can be described thus: Microbroth dilution MIC of carbapenem with/without inhibitor. The class given is cell-based. The method, then:
(§1) • Plate bacterial strain(s) on appropriate media: • Gram-negative bacteria with ESBLs or carbapenemases: green agar plates with 100 mg/L ampicillin • Gram-negative bacteria without β-lactamases: green agar plates • Gram-positive bacteria (Staphylococci and Enterococci): blood agar plates • Incubate o.n. at 37° C.
(§2) (Should be used within 15 min of preparation). • Dilute the 0.5 McFarland suspension 1:100 into MH broth. […] Plate 10 μl of the dilution on MH agar plates (×2). Incubate o.n. at 37° C., count the colonies and calculate the final CFU/ml inoculum in the plate by multiplying the average number of colonies with 10000 and divide by 2. The final inoculum should be between 3-7×10^5 CFU/ml. • Add 50 μl of the prepared bacterial suspension to each well in the microtiter plate except negative growth control.
(§3) • Calculate the desired concentration-range and volume of the compounds/antibiotics in the assay. […] Dilute the stock solution in MH broth. Make subsequent 2-fold dilutions in MH broth of the desired concentrations if a concentration range is to be tested (remember the extra dilution factor in the assay plate). Always include extra volume for pipetting. Take into consideration stock solutions that are made in buffers that have an effect on bacterial growth (e.g. DMSO).
(In general: In broth dilution the organism is exposed to a series of concentrations in liquid medium.)

For experiment [2], the system named is P. aeruginosa K34-7 (VIM-2). The description is as above. The class given is cell-based. How it is done:
as §1, §2, §3

In experiment [3] the test system is resistant clinical isolate of Klebsiella pneumoniae harboring NDM-1. The experiment can be described thus: Time-kill study with meropenem. Type of experiment: cell-based. As to conditions: 4 mg/L meropenem alone; grows beyond starting CFU count. The method, then: Mueller-Hinton broth (MHB) was warmed from fridge temperature cold. […] A sample of Example 26 was dissolved in DMSO.
The 96-well plates were prepared using a multi-channel pipette, adding […] PBS to columns 2-9, or the required number of dilutions needed in the experiment. Each Inoculum was prepared by picking a single colony from the fresh plate that was disperged into 1 mL MHB, the loop was agitated to ensure all the colony comes off the loop. The tube was Vortex mixed, and a 100 μL aliquot was taken from the tube into 9.9 mL of MHB into the media bottle. […] The procedure was repeated for as many samples needed in the study. Aliquots of 5 mL inoculum were transferred to as many media bottles as needed, e.g. 4 mg/L MEM, 4 mg/L MEM+50 μM test substance, 4 mg/L MEM+100 μM test substance. Then […] aliquots were taken from each culture and added to Column 1 on the 96 well plate, e.g. culture 1: 50 μl into A1, […] into B1 etc. for time point 0 h. Then […] MEM was added into each bottle, followed by the required amount of test substance. The bottles were mixed gently to avoid formation of bubbles, and incubated in a secondary container at 37° C. at 180 rpm. Finally, serial dilutions were performed using multi-channel pipette taking 30 μL for column 1, adding to column 2, mixing well, repeating from column 2 to 3 with clean pipette tips.

The subject of experiment [4] is Klebsiella pneumoniae strain 50752501 harbouring NDM-1. The experiment can be described thus: In vivo infection study in neutropenic mice. On the set-up: species or system Klebsiella pneumoniae; host NMRI mice. The settings on record: meropenem alone 33 mg/kg. How it is done:
The purpose of this study was to investigate the synergy between a typical example of the present invention and a state of art carbapenem in a clinically relevant multiresistant Gram-negative bacterial strain harboring a metallo-β-lactamase in the treatment of live mice infected with the bacterial strain.
The mice were rendered neutropenic by injecting 0.5 ml cyclophosphamide solution intraperitoneally 4 days (approximately 200 mg/kg) and 1 day (approximately 100 mg/kg) prior to inoculation.
Fresh overnight colonies from a 5% Horse Blood Agar plate were suspended and diluted in sterile saline to approximately and 10^7 CFU/ml. Mice were inoculated intraperitoneally with 0.5 ml of the suspension. Approximately ½ hr prior to inoculation, mice were treated orally with 45 μl neurophen (20 mg ibuprofen/ml corresponding to approximately 30 mg/kg) as a pain relief.
Mice were treated subcutaneously in the neck region with.
Colony counts were determined from blood and peritoneal fluid at 1 and 5 hrs post inoculation. […] The mice were sacrificed immediately after blood sampling and a total of 2 ml sterile saline was injected i.p. and the abdomen gently massaged before it was opened and fluid sampled with a pipette. Each sample was then 10 fold serial diluted in saline and 20-μl spots, ranging from undiluted to a 10^6 dilution, were applied on agar plates in duplicates. […] All agar plates were incubated 18-22 hrs at 35° C. in ambient air.

Experiment [5] concerns resistant gram-negative MBL-based bacteria. The experiment can be described thus: MICx: lowest adjuvant concentration giving carbapenem MIC ≤2 mg/L. As to conditions: for adjuvant effect at an inhibitor concentration of 25 mg/L: meropenem, K34-7 and K66-45. Type of experiment: cell-based.
For experiment [6] the following is noted: zinc-binding ability; known/prior art value; cited from earlier work.
A further experiment concerns the target VIM-2 (Escherichia coli, UniProt Q5U7L7). The class given is biochemical. The settings on record: purified VIM-2, PD-10 column; EDTA at 100 μM. How it is done:
The eluent used was Chelex-treated HEPES 50 mM buffer, pH 7.5. […] In all experiments, 16 aliquots of 250 μL were taken from the PD-10 column runsout and enzyme activity was analysed. Enzyme activity was measured by adding Nitrocefin as a reporter substrate (final concentration of 50 μM).
To investigate if more extreme time-dependent and concentration-dependent conditions could restore enzyme activity, aliquots having final concentrations of 30 nM column-treated enzyme and 1000 μM Zn^2+ on ice and at room temperature over prolonged time.

Another experiment has as its system K. pneumoniae K66-45. Type of experiment: cell-based. As to conditions: inhibitor 25 mg/L. The method, then:
After plating and grown overnight at 37° C., only single colonies, ignoring any touching the edges of the plate, were counted.
10^9 CFU K66-45 (Mueller-Hinton broth, no selection) was plated and grown overnight, 37° C. Only single colonies, ignoring any touching the edges of the plate, were counted.

The structures appear in SMILES notation. Like-named read-outs stand apart in the source and are kept apart here. A value given as a limit tells only on which side of the number the result lay.

As to `C[C@@H](O)[C@H]1C(=O)N2C(C(=O)O)=C(S[C@@H]3CN[C@H](C(=O)N(C)C)C3)[C@H](C)[C@H]12` [meropenem, reference compound], in experiment [1] (Klebsiella pneumoniae, read-out: MIC of MEM in the absence of Example 26, K. pneumoniae K66-45), the MIC (usually the least concentration at which growth counts as inhibited) was over 32 µg/mL. The “MIC Value in K66-45 (MIC of carbapenem)” value in experiment [1] (carbapenem alone, K. pneumoniae NDM-1) fell in the range of 32 to 64 mg/L. The “MIC value in K34-7 (MIC of carbapenem)” value in experiment [2] (carbapenem alone, P. aeruginosa VIM-2) lay within 32 to 64 mg/L. Besides, in experiment [3], the “time after which CFU starts to increase” value is reported as “about 5 hours”. For the same compound, the “lower CFU levels compared to vehicle treatment” value in experiment [4] (blood) is given as 2.5 log10; in experiment [4] (peritoneal fluid) it was 2.2 log10.

As to `CN(C[C@H](O)[C@@H](O)[C@H](O)[C@H](O)CO)C(=O)c1ccc(CN(Cc2ccccn2)Cc2ccccn2)s1` [Example 182, 5-((bis(pyridin-2-ylmethyl)amino)methyl)-N-methyl-N-((2S,3R,4R,5R)-2,3,4,5,6-pentahydroxyhexyl)thiophene-2-carboxamide], the “adjuvant effect at an inhibitor concentration of 25 mg/L” value in experiment [5] was “completely abolishes the adjuvant effect”.

For the compound `O=C(NCCc1ccc(-n2cc(CN(Cc3ccccn3)Cc3ccccn3)nn2)cc1)[C@H]1O[C@H](O)[C@H](O)[C@@H](O)[C@H]1O` [Example 101, (2S,3R,4S,5R,6S)—N-(4-(4-((Bis(pyridin-2-ylmethyl)amino)methyl)-1H-1,2,3-triazol-1-yl)phenethyl)-3,4,5,6-tetrahydroxytetrahydro-2H-pyran-2-carboxamide], in experiment [5], the “adjuvant concentration range at which efficient” value is 100 to 150 µM and the “adjuvant effect at an inhibitor concentration of 25 mg/L” value was “less activity as an adjuvant”. `CN(C[C@H](O)[C@@H](O)[C@H](O)[C@H](O)CO)C(=O)c1ccc(CN(Cc2ccccc2)Cc2ccccn2)nc1` [Example 187, 6-((benzyl(pyridin-2-ylmethyl)amino)methyl)-N-methyl-N-((2S,3R,4R,5R)-2,3,4,5,6-pentahydroxyhexyl)nicotinamide]: the “adjuvant effect at an inhibitor concentration of 25 mg/L” value in experiment [5] is given as “completely abolishes the adjuvant effect”. Take `c1ccc(CN(Cc2ccccn2)Cc2ccccn2)nc1` [TPA, N,N,N-tris(2-pyridylmethyl) amine]: in experiment [6], the negative logarithm of the Kd (pKd) (in general, −log10 of the Kd, conventionally taken in molar units) is reported as “about 12”.

Consider `O=C(O)CN(CCN(CC(=O)O)CC(=O)O)CC(=O)O` [EDTA, ethylenediaminetetra-acetic acid, reference compound], for which the “irreversibility of VIM-2 inhibition” value at VIM-2 was “did not inhibit VIM-2 irreversibly”. Consider `c1ccc(CNCc2ccccn2)nc1` [DPA, dipicoylamine], for which the negative-log Kd (pKd) in experiment [6] is under 8. Turning to `CN(C[C@H](O)[C@@H](O)[C@H](O)[C@H](O)CO)C(=O)c1ccc(CN(Cc2ccccc2)Cc2ccccc2)nc1` [Example 185, 6-((dibenzylamino)methyl)-N-methyl-N-((2S,3R,4R,5R)-2,3,4,5,6-pentahydroxyhexyl)nicotinamide], the “adjuvant effect at an inhibitor concentration of 25 mg/L” value in experiment [5] is listed as “completely abolishes the adjuvant effect”. For `COC(=O)c1ccc(CN(Cc2ccccn2)Cc2ccccn2)s1` [Example 180, Methyl 5-((bis(pyridin-2-ylmethyl)amino)methyl)thiophene-2-carboxylate], the “adjuvant effect at an inhibitor concentration of 25 mg/L” value in experiment [5] is recorded as “completely abolishes the adjuvant effect”. As for `c1ccc(CN(CCN(Cc2ccccn2)Cc2ccccn2)Cc2ccccn2)nc1` [TPEN, N,N,N′,N′-tetrakis(2-pyridylmethyl) ethylenediamine, reference compound], the “irreversibility of VIM-2 inhibition” value on VIM-2 is on record as “irreversibly inhibited”. Take `O=C(Cc1ccc(-n2cc(CN(Cc3ccccn3)Cc3ccccn3)nn2)cc1)N[C@@H](Cc1cccc(C(=O)O)c1)B(O)O` [Example 157, (R)-3-(2-(2-(4-(4-((bis(pyridin-2-ylmethyl)amino)methyl)-1H-1,2,3-triazol-1-yl)phenyl)acetamido)-2-boronoethyl)benzoic acid]: the “adjuvant effect at an inhibitor concentration of 25 mg/L” value in experiment [5] is on record as “less activity as an adjuvant”. Take `COC(=O)[C@@H](C)NC(=O)[C@@H](C)NC(=O)Cn1cc(CN(Cc2ccccn2)Cc2ccccn2)nn1` [Example 194, Methyl (2-(4-((bis(pyridin-2-ylmethyl)amino)methyl)1H-1,2,3-triazol-1-yl)acetyl)-D-alanyl-D-alaninate, reference compound]: the “adjuvant concentration range at which efficient” value in experiment [5] lay within 100 to 150 µM.

As to `OC1O[C@H](Cn2cc(CN(CCN(Cc3ccccn3)Cc3ccccn3)Cc3ccccn3)nn2)[C@H](O)[C@H](O)[C@H]1O` (stereo partly shown) [Example 91], the MIC of meropenem in experiment [2] (P. aeruginosa K34-7 (VIM-2), inhibitor 50 μM) came out at 1. As to `CN(C[C@H](O)[C@@H](O)[C@H](O)[C@H](O)CO)C(=O)Cc1ccc(NC(=O)CN(CCN(Cc2ccccn2)Cc2ccccn2)Cc2ccccn2)cc1` [Example 25, 2-(4-(2-((2-(bis(pyridin-2-ylmethyl)amino)ethyl)(pyridin-2-ylmethyl)amino)acetamido)phenyl)-N-methyl-N-(2,3,4,5,6-pentahydroxyhexyl)acetamide], the “RF - no of colonies” value with K. pneumoniae K66-45 (MEM 2 mg/L), with K. pneumoniae K66-45 (MEM 4 mg/L) and in the experiment on K. pneumoniae K66-45 (MEM 8 mg/L) was “nc (n.c. = no colonies)” throughout.

The values above are taken from patent publication US20210221791A1, “COMPOUNDS” (UNIVERSITETET I OSLO, priority 2016, published 2021).
